Test [1] deals with saponin-permeabilized ventricular cardiomyocytes (sp-vCM) from RyR2R2474S/+ mice. Put plainly: Ca2+ wave decay in saponin-permeabilized ventricular cardiomyocytes, RyR2R2474S/+ mice. Format: cell-based. As to conditions: 10 µM, result in words. From the text: (§1) • Figure 1: Synthesis scheme showing the synthesis of multifunctional compounds with cyclopropanol residues based on 1,4 -benzothiazepines. The respective reaction conditions (a) to (i) are as follows: (a) Jones reagent, aceton; (b) H2SO4, EtOH; (c) EtMgBr, Ti(OiPr)4, EtzO; (d) t-BuMe2SiOSO2CF3, 2,6-lutidine, DCM; (e) Hz, Pd/C, THF; (f) Dess-Martin reagent, DCM; (g) K2CO3, 1,4-dioxane; (h) N2H4*H2O, EtOH; (i) Na(CH3COO)3BH, 1,2-dichloroethane; (j) NaH, DMF; (k) aq. HF (55%), MeCN or 1 M n-Bu4NF in THF or KF, Et3N*HCl, MeOH. m,n = 2-8. • Figure 2: Synthesis scheme showing the synthesis of multifunctional compounds with cyclopropanol residues based on the "open" analogs 1,4 -benzothiazepines (i.e. 3-[(4-methoxyphenyl)oxy]-and 3-[(4-methoxyphenylthio)]propane-1-amine derivatives). […] Values represent the mean ± S.D., *** P < 0.0005, **** P < 0.0001 vs. DMSO by unpaired t test; n = 6 - 28. • Figure 6: Time-lapse fluorescence measurements using TECAN Spark 20M plate reader with HEK293 cells expressing WT RyR2 and R-CEPIA1er indicator. […] Fluorescence ratio F/F0, where F0 - average fluorescence signal for the first 90 seconds, F- average fluorescence signal for the last 100 s, was taken for the calculations. […] Data sets were analyzed by unpaired Student's t-test. n.s. non-significant with P=0.59 for Dan, **, P<0.01 with P=0.003 for S36, and *, P<0.05 with P=0.019 for GM1869; (D, E, F) Relative changes in the decay time tau of Ca2+ transients from spontaneous Ca2+ waves (in control/drug) by Dan (D, 10µM), S36 (E, 10 µM), and GM1869 (F, 10 µM) in cardiomyocytes from WT and RyR2R2474S/+ mice. […] Rise times represent the tau values calculated by a mono-exponential fit of the Ca2+ transients from start to the peak of the signal. Ca2+ transients were recorded in control conditions and every 2 min (S36) or 4 min (GM1869) after drug application. **, P = 0.0065 for S36; ****, P = 0.000019 for GM1869, evaluated by paired Student's t-test. […] Decay times represent the tau values calculated by a mono-exponential fit of the Ca2+ transients from half maximum to baseline of the signal. […]

Test [2] has as its system RyR2-WT iPSC cardiomyocytes. Put plainly: Electrically induced Ca2+ transients in intact iPSC-derived cardiomyocytes, RyR2-WT. Type of test: cell-based, human. As to conditions: estimated from non-linear fit; for IC50: read-out: IC50 values for the rise times of Ca2+ transients. From the text:
(§2) • Figure 1: Synthesis scheme showing the synthesis of multifunctional compounds with cyclopropanol residues based on 1,4 -benzothiazepines. The respective reaction conditions […] are as follows: (a) Jones reagent, aceton; (b) H2SO4, EtOH; (c) EtMgBr, Ti(OiPr)4, EtzO; (d) t-BuMe2SiOSO2CF3, 2,6-lutidine, DCM; (e) Hz, Pd/C, THF; (f) Dess-Martin reagent, DCM; (g) K2CO3, 1,4-dioxane; (h) N2H4*H2O, EtOH; (i) Na(CH3COO)3BH, 1,2-dichloroethane; (j) NaH, DMF; (k) aq. HF (55%), MeCN or 1 M n-Bu4NF in THF or KF, Et3N*HCl, MeOH. m,n = 2-8. • Figure 2: Synthesis scheme showing the synthesis of multifunctional compounds with cyclopropanol residues based on the "open" analogs 1,4 -benzothiazepines (i.e. 3-[(4-methoxyphenyl)oxy]-and 3-[(4-methoxyphenylthio)]propane-1-amine derivatives). […] Values represent the mean ± S.D., *** P < 0.0005, **** P < 0.0001 vs. DMSO by unpaired t test; n = 6 - 28. • Figure 6: Time-lapse fluorescence measurements using TECAN Spark 20M plate reader with HEK293 cells expressing WT RyR2 and R-CEPIA1er indicator. (a) R-CEPIA1er assay, control (0.1 v/v% DMSO) or 100 µM of compound 14a was injected at 90 seconds (arrow). Fluorescence ratio F/F0, where F0 - average fluorescence signal for the first 90 seconds, F- average fluorescence signal for the last 100 s, was taken for the calculations. (b-d) Dose-response effects of compounds 13 and 14 on [Ca^2+]ER in HEK293-RyR2-R-CEPIA1er cells. […] Data sets were analyzed by unpaired Student's t-test. n.s. non-significant with P=0.59 for Dan, **, P<0.01 with P=0.003 for S36, and *, P<0.05 with P=0.019 for GM1869; (D, E, F) Relative changes in the decay time tau of Ca2+ transients from spontaneous Ca2+ waves (in control/drug) by Dan (D, 10µM), S36 (E, 10 µM), and GM1869 (F, 10 µM) in cardiomyocytes from WT and RyR2R2474S/+ mice. […] Rise times represent the tau values calculated by a mono-exponential fit of the Ca2+ transients from start to the peak of the signal. Ca2+ transients were recorded in control conditions and every 2 min (S36) or 4 min (GM1869) after drug application. **, P = 0.0065 for S36; ****, P = 0.000019 for GM1869, evaluated by paired Student's t-test. […] Decay times represent the tau values calculated by a mono-exponential fit of the Ca2+ transients from half maximum to baseline of the signal. Ca2+ transients were recorded in control conditions and every 2 min (S36) or 4 min (GM1869) after drug application. Data sets were analyzed by paired Student's t-test. n.s., P = 0.14; **, P = 0.0043. […] Data from each experiment were normalized to the first transient recorded. […]

Test [3] deals with RyR2-R2474S+/- iPSC cardiomyocytes. Description: Electrically induced Ca2+ transients in intact iPSC-derived cardiomyocytes, RyR2-R2474S+/-. Type of test: cell-based, human. As to conditions: estimated from non-linear fit; for IC50: read-out: IC50 values for the rise times of Ca2+ transients.
Source text: as §2

The subject of test [4] is saponin-permeabilized ventricular cardiomyocytes (sp-vCM) from WT mice. Put plainly: Ca2+ wave decay in saponin-permeabilized ventricular cardiomyocytes, WT mice. Format: cell-based. As to conditions: 10 µM, result in words.
Source text: as §1

The mark [5] stands for this setting: Homo sapiens, iPSC, read-out: EC50 values for the decay times of Ca2+ transients.

Structures are written as SMILES.

One may read the IC50 as the concentration at which inhibition is half-maximal. On to `COc1ccc2c(c1)CN(C(=O)C(=O)O)CCS2` [Compound S36, reference compound], for which the “Relative changes in the decay time tau of Ca2+ transients from spontaneous Ca2+ waves (in control/drug)” value in test [1] and in test [4] was “not significantly different from 1” throughout. The IC50 in test [2] (Homo sapiens, iPSC) is 0.15 nM; in test [3] (Homo sapiens, iPSC) it was 0.04 nM. Moreover, the “EC50 values for the decay times of Ca2+ transients” value in test [2] and in test [3] was “no EC50 values were obtained” throughout.
What is called EC50 is the concentration that produces a half-maximal response. For `COc1ccc2c(c1)CN(CCCCN(CCCCC1(O)CC1)CCCCC1(O)CC1)CCS2` [Compound 14a, 1,1'-(((4-(7-Methoxy-2,3-dihydrobenzo[1,4-f]thiazepin-4(5H)-yl)butyl)azanediyl)bis(butane-4,1-diyl))bis(cyclopropan-1-ol)], the “Relative changes in the decay time tau of Ca2+ transients from spontaneous Ca2+ waves (in control/drug)” value in test [1] and in test [4] was “significantly below 1” each time. Moreover, the values for the EC50 in test [2] (setting [5]) and in test [3] (setting [5]) were 0.097 nM and 0.071 nM, respectively. The IC50 in test [2] (Homo sapiens, iPSC) was 0.025 nM; in test [3] (Homo sapiens, iPSC), 0.045 nM.

The values are drawn from EP4548971A1, “1,4-BENZOTHIAZEPINES AND RELATED COMPOUNDS WITH CYCLOPROPANOL GROUPS AS MULTI-TARGETED DRUGS” (Georg-August-Universität Göttingen Stiftung Öffentlichen …, priority 2023, dated 2025).
